Article PMC6553790 (PLoS Pathogens, 2019)

System: P. falciparum Cam3.II lines
Test: Isobologram analyses (fixed-ratio drug combinations)
Assay type: cell-based, Plasmodium falciparum
Protocol: Assays were performed with fixed ratios of drug combinations (1:0, 4:1, 2:1, 1:1, 1:2, 1:4, and 0:1), tested in duplicate. Combinations were prepared from 16×IC50 drug stocks and tested across a range of two-fold dilutions. Assays were conducted with asynchronous cultures exposed for 72 hr or with tightly synchronized rings or trophozoites (tested at 0–3 hr or 24–27 hr post-invasion, respectively) exposed for 3 hr. Post-pulse drug washouts were conducted as described above for in vitro determination of IC50 levels. IC50 values were derived for each compound tested alone, and fractional IC50 (FIC50) values were determined for each compound tested in combination (FIC50 = […]) and plotted for each drug combination. For each combination, the mean of the sums of FIC50 values at each combination (mean ΣFIC50) was also calculated and the results illustrated using heat maps.

[1] = combined with WLL, Asynchronous, 72 hr, Cam3.II K13C580Y
[2] = combined with WLL, Asynchronous, 72 hr, Cam3.II K13WT
[3] = combined with WLW, Asynchronous, 72 hr, Cam3.II K13C580Y
[4] = combined with WLW, Asynchronous, 72 hr, Cam3.II K13WT
[5] = asynchronous parasites, early rings and trophozoites, Cam3.II K13WT and K13C580Y
[6] = combined with WLL, Rings, 3 hr exposure, Cam3.II K13C580Y
[7] = combined with WLL, Rings, 3 hr exposure, Cam3.II K13WT
[8] = combined with WLL, Trophozoites, 3 hr exposure, Cam3.II K13C580Y
[9] = combined with WLL, Trophozoites, 3 hr exposure, Cam3.II K13WT
[10] = combined with WLW, Rings, 3 hr exposure, Cam3.II K13C580Y
[11] = combined with WLW, Rings, 3 hr exposure, Cam3.II K13WT
[12] = combined with WLW, Trophozoites, 3 hr exposure, Cam3.II K13C580Y
[13] = combined with WLW, Trophozoites, 3 hr exposure, Cam3.II K13WT
[14] = asynchronous parasites, rings and trophozoites (S1 Fig)

Compound	Interaction with WLL or WLW (asynchronous parasites, 72 hr)	Mean of the sums of FIC50 (mean ΣFIC50) [1]	Mean of the sums of FIC50 (mean ΣFIC50) [2]	Mean of the sums of FIC50 (mean ΣFIC50) [3]	Mean of the sums of FIC50 (mean ΣFIC50) [4]	Interaction with WLW (isobologram) [5]	Mean of the sums of FIC50 (mean ΣFIC50) [6]	Mean of the sums of FIC50 (mean ΣFIC50) [7]	Mean of the sums of FIC50 (mean ΣFIC50) [8]	Mean of the sums of FIC50 (mean ΣFIC50) [9]	Mean of the sums of FIC50 (mean ΣFIC50) [10]	Mean of the sums of FIC50 (mean ΣFIC50) [11]	Mean of the sums of FIC50 (mean ΣFIC50) [12]	Mean of the sums of FIC50 (mean ΣFIC50) [13]	Interaction with WLL (isobologram) (early rings and trophozoites)	Interaction with WLW (isobologram) (asynchronous parasites and trophozoites)	Interaction with WLL (isobologram) [14]	Interaction with WLW (isobologram) (early ring stage)
Cc1cc(Nc2ccc(S(F)(F)(F)(F)F)cc2)n2nc(C(C)(F)F)nc2n1 [DSM265]	antagonism	1.46	1.34	1.30	1.24													
C=CC(=O)N1C/C(=C\c2ccc([N+](=O)[O-])cc2)C(=O)/C(=C/c2ccc([N+](=O)[O-])cc2)C1 [b-AP15]		1.11	1.05	0.78	0.86	synergy	0.77	0.80	0.66	0.67	0.35	0.34	0.52	0.60	Synergy			
C[C@H]1Cc2c([nH]c3cc(Cl)c(F)cc23)[C@@]2(N1)C(=O)Nc1ccc(Cl)cc12 [NITD609]	antagonism	1.67	1.58	1.44	1.39													
CC1(C)C(N(O)C(=O)Nc2ccc(Cl)cc2)N(c2ccc(Cl)cc2)C(=O)N1CC(=O)N/N=C/C=C/c1ccc([N+](=O)[O-])o1 (centres unmarked) [ESI, eeyarestatin I]		1.29	1.28	0.97	0.98		1.09	1.05	1.05	1.19	0.80	0.73	1.08	0.97		additive	largely additive	Mild synergy
CN(C)c1ccc2nc3ccc(=[N+](C)C)cc-3sc2c1 [MB, methylene blue]		1.20	1.22	0.83	0.89	synergy	0.84	0.87			0.36	0.40	0.78	0.71			synergy with WLL was limited to the early ring stage	
c1cc([C@H]2CC[C@]3(CC2)OO[C@]2(O3)C3CC4CC(C3)CC2C4)ccc1OCCN1CCOCC1 [OZ439]		1.10	1.21	0.76	0.85	synergy	0.79	0.65	0.67	0.64	0.40	0.35	0.51	0.48	Synergy			
